A word on the IC50: it is the point on the concentration scale where inhibition reaches its midpoint.

The structures appear in SMILES notation.

This assay deals with T1, Recombinant human HSP90a (Homo sapiens, UniProt P07900).
T1 construct: host or cells: E. coli
The experiment in a line: HSP90 radioligand filter binding test ([3H]17AAG competition). The following applies: [3H]17AAG 0.08 μM, HSP90 1.5 μg/assay, 22° C., 30 min; read-out: IC50 (HSP90 inhibition). From the text: Test Method for the Measurement of HSP90 Inhibitors
The binding of geldanamycin or 17-allylamino-17-demethoxygeldanamycin (17AAG) to HSP90 and competitive inhibition thereof can be utilised in order to determine the inhibitory activity of the compounds according to the invention (Carreras et al. 2003, Chiosis et al. 2002).
In the specific case, a radioligand filter binding test is used. The radioligand used here is tritium-labelled 17-allylaminogeldanamycin, [3H]17AAG. This filter binding test allows a targeted search for inhibitors which interfere with the ATP binding site.
Recombinant human HSP90a (E. coli expressed, 95% purity);
[3H]17AAG (17-allylaminogeldanamycin, [allylamino-2,3-^3H. Specific activity: 1.11×10^12 Bq/mmol (Moravek, MT-1717);
HEPES filter buffer (50 mM HEPES, pH 7.0, 5 mM MgCl2, BSA 0.01%)
Multiscreen FB (1 μm) filter plate (Millipore, MAFBNOB 50).
The 96-well microtitre filter plates are firstly irrigated and coated with 0.1% of polyethylenimine.
The test is carried out under the following conditions:
Reaction temperature 22° C.
Reaction time: 30 min., shaking at 800 rpm
50 mM HEPES HCl, pH 7.0, 5 mM MgCl2, 0.01% (w/v) of BSA
At the end of the reaction, the supernatant in the filter plate is removed by suction with the aid of a vacuum manifold (Multiscreen Separation System, Millipore), and the filter is washed twice.
The filter plates are then measured in a beta counter (Microbeta, Wallac) with scintillator (Microscint 20, Packard).
“% of control” is determined from the “counts per minutes” values, and the IC-50 value of a compound is calculated therefrom.
Take `Nc1nc(C(=O)N2Cc3ccccc3C2)c2cc(-c3ccccc3S(=O)(=O)n3ccnc3)ccc2n1` [Compound A27, {2-Amino-6-[2-(imidazole-1-sulfonyl)phenyl]quinazolin-4-yl}-(1,3-dihydroisoindol-2-yl)methanone]: the half-inhibitory concentration (IC50) was in the range of 1000 to 10000 nM.

As to `CCN(CC)C(=O)c1cc(F)ccc1-c1ccc2nc(N)nc(C(=O)N3Cc4ccccc4C3)c2c1` [Compound A71, 2-[2-Amino-4-(1,3-dihydroisoindole-2-carbonyl)quinazolin-6-yl]-N,N-diethyl-5-fluorobenzamide], the IC50 lay in the range of 10 to 1000 nM. The figure for `Nc1nc(C(=O)N2Cc3ccccc3C2)c2cc(-c3ccccc3C(=O)N3CCC(F)(F)C3)ccc2n1` [Compound A49, {2-Amino-6-[2-(3,3-difluoropyrrolidine-1-carbonyl)phenyl]quinazolin-4-yl}-(1,3-dihydroisoindol-2-yl)methanone] is 10 to 1000 nM. `CN(CCO)S(=O)(=O)c1ccccc1-c1ccc2nc(N)nc(C(=O)N3Cc4ccccc4C3)c2c1` [Compound A8]: the IC50 was in the range of 10 to 1000 nM. For `CNC(=O)C1CCCN1C(=O)c1ccccc1-c1ccc2nc(N)nc(C(=O)N3Cc4ccccc4C3)c2c1` (stereo not drawn) [Compound A50, 1-{2-[2-amino-4-(1,3-dihydroisoindole-2-carbonyl)quinazolin-6-yl]benzoyl}pyrrolidine-2-methylamide], the IC50 fell in the range of 1000 to 10000 nM. Take `CC(=O)NC1CCN(S(=O)(=O)c2ccccc2-c2ccc3nc(N)nc(C(=O)N4Cc5ccccc5C4)c3c2)C1` (stereo not drawn) [Compound A20]: the 50% inhibitory concentration (IC50) was in the range of 10 to 1000 nM. In the case of `Nc1nc(C(=O)N2Cc3ccccc3C2)c2cc(-c3ccccc3C(=O)N3CC[C@H](F)C3)ccc2n1` [Compound A62], the half-inhibitory concentration (IC50) fell in the range of 10 to 1000 nM.

Regarding `Nc1nc(C(=O)N2Cc3ccccc3C2)c2cc(-c3ccccc3C(=O)N3CCC(CO)C3)ccc2n1` (stereo not drawn) [Compound A35], the IC50 lay in the range of 10 to 1000 nM. As to `CCNC(=O)c1cc(F)ccc1-c1ccc2nc(N)nc(C(=O)N3Cc4ccccc4C3)c2c1` [Compound A83, 2-[2-Amino-4-(1,3-dihydroisoindole-2-carbonyl)quinazolin-6-yl]-N-ethyl-5-fluorobenzamide], the IC50 was 10 to 1000 nM.

Turning to `CCN(CC)C(=O)c1ccc(F)cc1-c1ccc2nc(N)nc(C(=O)N3Cc4ccccc4C3)c2c1` [Compound A70], the IC50 is 10 to 1000 nM. Consider `CC1CCCN1S(=O)(=O)c1ccccc1-c1ccc2nc(N)nc(C(=O)N3Cc4ccccc4C3)c2c1` (stereo not drawn) [Compound A19, {2-Amino-6-[2-(2-methylpyrrolidine-1-sulfonyl)phenyl]quinazolin-4-yl}-(1,3-dihydroisoindol-2-yl)methanone], for which the IC50 lay within 10 to 1000 nM. The figure for `Cc1cn(S(=O)(=O)c2ccccc2-c2ccc3nc(N)nc(C(=O)N4Cc5ccccc5C4)c3c2)cn1` [Compound A30, {2-Amino-6-[2-(4-methylimidazole-1-sulfonyl)phenyl]quinazolin-4-yl}-(1,3-dihydroisoindol-2-yl)methanone] is 10 to 1000 nM.

On to `CN(C1CNC1)S(=O)(=O)c1ccccc1-c1ccc2nc(N)nc(C(=O)N3Cc4ccccc4C3)c2c1` [Compound A68], for which the half-inhibitory concentration (IC50) was 10 to 1000 nM. Under `CN(C)CCNS(=O)(=O)c1ccccc1-c1ccc2nc(N)nc(C(=O)N3Cc4ccccc4C3)c2c1` [Compound A3] stands 10 to 1000 nM; under `NCCNS(=O)(=O)c1ccccc1-c1ccc2nc(N)nc(C(=O)N3Cc4ccccc4C3)c2c1` [Compound A14, 2-[2-Amino-4-(1,3-dihydroisoindole-2-carbonyl)quinazolin-6-yl]-N-(2-aminoethyl)benzenesulfonamide], 10 to 1000 nM. Regarding `Nc1nc(C(=O)N2Cc3ccccc3C2)c2cc(-c3ccccc3C(=O)N3CCC(O)CC3)ccc2n1` [Compound A23], the IC50 is 10 to 1000 nM. The figure for `Nc1nc(C(=O)N2Cc3ccccc3C2)c2cc(-c3ccccc3S(=O)(=O)N3CCC(F)(F)C3)ccc2n1` [Compound A53, {2-Amino-6-[2-(3,3-difluoropyrrolidine-1-sulfonyl)phenyl]quinazolin-4-yl}-(1,3-dihydroisoindol-2-yl)methanone] is 10 to 1000 nM; for `CCN(C)C(=O)c1ccccc1-c1ccc2nc(N)nc(C(=O)N3Cc4ccccc4C3)c2c1` [Compound A39] it is 10 to 1000 nM; for `COC(=O)C1CCCN1C(=O)c1ccccc1-c1ccc2nc(N)nc(C(=O)N3Cc4ccccc4C3)c2c1` (stereo not drawn) [Compound A37, Methyl 1-{2-[2-amino-4-(1,3-dihydroisoindole-2-carbonyl)quinazolin-6-yl]benzoyl}pyrrolidine-2-carboxylate] it is 10 to 1000 nM.

For `CN(CCOC(=O)CN)S(=O)(=O)c1ccccc1-c1ccc2nc(N)nc(C(=O)N3Cc4ccccc4C3)c2c1` [Compound A15, 2-({2-[2-amino-4-(1,3-dihydroisoindole-2-carbonyl)quinazolin-6-yl]benzenesulfonyl}methylamino)ethyl aminoacetate], the half-inhibitory concentration (IC50) lay in the range of 10 to 1000 nM. Under `CCNS(=O)(=O)c1ccccc1-c1ccc2nc(N)nc(C(=O)N3Cc4ccccc4C3)c2c1` [Compound A5, 2-[2-Amino-4-(1,3-dihydroisoindole-2-carbonyl)quinazolin-6-yl]-N-ethylbenzenesulfonamide] stands 10 to 1000 nM.

Consider `CCN(CCO)C(=O)c1ccccc1-c1ccc2nc(N)nc(C(=O)N3Cc4ccccc4C3)c2c1` [Compound A24], for which the IC50 was 10 to 1000 nM. As for `Nc1nc(C(=O)N2Cc3ccccc3C2)c2cc(-c3ccccc3S(=O)(=O)N3CCCC3C(=O)NCCO)ccc2n1` (stereo not drawn) [Compound A61, N-(2-hydroxyethyl)-1-{2-[2-amino-4-(1,3-dihydroisoindole-2-carbonyl)quinazolin-6-yl]benzenesulfonyl}pyrrolidine-2-carboxamide], the IC50 fell in the range of 10 to 1000 nM. For `CC(CN(C)C)NS(=O)(=O)c1ccccc1-c1ccc2nc(N)nc(C(=O)N3Cc4ccccc4C3)c2c1` (stereo not drawn) [Compound A17], the 50% inhibitory concentration (IC50) lay in the range of 10 to 1000 nM. For the compound `CC(C)(C)NC(=O)c1cc(F)c(F)cc1-c1ccc2nc(N)nc(C(=O)N3Cc4ccccc4C3)c2c1` [Compound A81, 2-[2-Amino-4-(1,3-dihydroisoindole-2-carbonyl)quinazolin-6-yl]-N-tert-butyl-4,5-difluorobenzamide], the IC50 is 10 to 1000 nM. As to `Nc1nc(C(=O)N2Cc3ccccc3C2)c2cc(-c3ccccc3S(=O)(=O)NC3CC3)ccc2n1` [Compound A52, 2-[2-Amino-4-(1,3-dihydroisoindole-2-carbonyl)quinazolin-6-yl]-N-cyclopropylbenzenesulfonamide], the half-inhibitory concentration (IC50) is 10 to 1000 nM. For `Nc1nc(C(=O)N2Cc3ccccc3C2)c2cc(-c3ccccc3S(=O)(=O)N3CCC(CO)C3)ccc2n1` (stereo not drawn) [Compound A21, {2-Amino-6-[2-(3-hydroxymethylpyrrolidine-1-sulfonyl)phenyl]quinazolin-4-yl}-(1,3-dihydroisoindol-2-yl)methanone], the half-inhibitory concentration (IC50) was in the range of 10 to 1000 nM. Consider `Nc1nc(C(=O)N2Cc3ccccc3C2)c2cc(-c3ccccc3S(=O)(=O)N3CCNC(=O)C3)ccc2n1` [Compound A12], for which the IC50 was 10 to 1000 nM. Under `Nc1nc(C(=O)N2Cc3ccccc3C2)c2cc(-c3ccccc3C(=O)N3CCC3)ccc2n1` [Compound A54] stands 10 to 1000 nM.

Consider `CCN(CC)C(=O)c1cc(F)c(F)cc1-c1ccc2nc(N)nc(C(=O)N3Cc4ccccc4C3)c2c1` [Compound A69, 2-[2-Amino-4-(1,3-dihydroisoindole-2-carbonyl)quinazolin-6-yl]-N,N-diethyl-4,5-difluorobenzamide], for which the IC50 was in the range of 10 to 1000 nM.
